One test relates to MDA-MB-231 cells. In words: Cell proliferation assay (CellTiter-Glo), MDA-MB-231. The format is cell-based. As to conditions: 72 h treatment, Celltiter-Glo luminescence. The essentials:
(§1)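 MDA-MB-231 (RPMI-1640/10% FBS) and EVSA-T (MEM/10% FBS) cells, 10000 cells/well, exposed 72 h to compound at […]. Viability read by CellTiter-Glo luminescence after 15 min at room temperature. IC50 from control-normalised curve fitting.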

The next test concerns EVSA-T cells. Briefly: Cell proliferation assay (CellTiter-Glo), EVSA-T. The class given is cell-based. As to conditions: 72 h treatment, Celltiter-Glo luminescence. The essentials:
as §1
In general terms: In ATP-based viability assays light output follows the ATP content of the culture.

From patent US20250179073A1, “TRICYCLIC HETEROCYCLE COMPOUNDS AS IAP ANTAGONISTS” (Ascentage Pharma (Suzhou) Co., Ltd., priority 2022, published 2025) come the findings set out here.

A word on the IC50: it is the concentration needed to halve the response being measured.

`CC(C)NC(=O)c1nc2c(Cc3ccc(F)cc3)cc3c(n2n1)C(C)(C)CN3C(=O)CN1C[C@@H](C)NC[C@@H]1CN1CCOC[C@H]1C` [Compound 256, 4-(4-fluorobenzyl)-N-isopropyl-8,8-dimethyl-6-(2-((2R,5R)-5-methyl-2-(((R)-3-methylmorpholino)methyl)piperazin-1-yl)acetyl)-7,8-dihydro-6H-pyrrolo[2,3-e][1,2,4]triazolo[1,5-a]pyridine-2-carboxamide]: the IC50 with MDA-MB-231 cells (Homo sapiens, MDA-MB-231, 72 h) worked out at 70 nM; with EVSA-T cells (Homo sapiens, EVSA-T, 72 h), 8.9 nM.

As to `C[C@@H]1CN(CC(=O)N2CC(C)(C)c3c2cc(Cc2ccc(F)cc2)c2nc(C(=O)NC4CC4)nn32)[C@@H](CN2CCOC[C@H]2C)CN1` [Compound 257, N-cyclopropyl-4-(4-fluorobenzyl)-8,8-dimethyl-6-(2-((2R,5R)-5-methyl-2-(((R)-3-methylmorpholino)methyl)piperazin-1-yl)acetyl)-7,8-dihydro-6H-pyrrolo[2,3-e][1,2,4]triazolo[1,5-a]pyridine-2-carboxamide], the 50% inhibitory concentration (IC50) in the test on MDA-MB-231 cells (Homo sapiens, MDA-MB-231, 72 h) worked out at 140 nM; in the test with EVSA-T cells (Homo sapiens, EVSA-T, 72 h) it was 11.6 nM.

As for `CCNC(=O)c1nc2c(Cc3ccc(F)cc3)cc3c(n2n1)C(C)(C)CN3C(=O)CN1C[C@@H](C)NC[C@@H]1CN1CCOC[C@H]1C` [Compound 259, N-ethyl-4-(4-fluorobenzyl)-8,8-dimethyl-6-(2-((2R,5R)-5-methyl-2-(((R)-3-methylmorpholino)methyl)piperazin-1-yl)acetyl)-7,8-dihydro-6H-pyrrolo[2,3-e][1,2,4]triazolo[1,5-a]pyridine-2-carboxamide], the 50% inhibitory concentration (IC50) in the test on MDA-MB-231 cells (Homo sapiens, MDA-MB-231, 72 h) was 87 nM; in the test with EVSA-T cells (Homo sapiens, EVSA-T, 72 h), 15.8 nM.

Turning to `C[C@@H]1CN(CC(=O)N2CC(C)(C)c3c2cc(Cc2ccc(F)cc2)c2nn(C(C)(C)CO)c(=O)n32)[C@@H](CN2CCOC[C@H]2C)CN1` [Compound 260, 4-(4-fluorobenzyl)-2-(1-hydroxy-2-methylpropan-2-yl)-8,8-dimethyl-6-(2-((2R,5R)-5-methyl-2-(((R)-3-methylmorpholino)methyl)piperazin-1-yl)acetyl)-2,6,7,8-tetrahydro-1H-pyrrolo[2,3-e][1,2,4]triazolo[4,3-a]pyridin-1-one], the IC50 in the test with MDA-MB-231 cells (Homo sapiens, MDA-MB-231, 72 h) worked out at 29 nM; in the test on EVSA-T cells (Homo sapiens, EVSA-T, 72 h), 2.7 nM.

Regarding `COCC(COC)n1nc2c(Cc3ccc(F)cc3)cc3c(n2c1=O)C(C)(C)CN3C(=O)CN1C[C@@H](C)NC[C@@H]1CN1CCOC[C@H]1C` [Compound 261, 2-(1,3-dimethoxypropan-2-yl)-4-(4-fluorobenzyl)-8,8-dimethyl-6-(2-((2R,5R)-5-methyl-2-(((R)-3-methylmorpholino)methyl)piperazin-1-yl)acetyl)-2,6,7,8-tetrahydro-1H-pyrrolo[2,3-e][1,2,4]triazolo[4,3-a]pyridin-1-one], the IC50 was 17 nM in the test on MDA-MB-231 cells (Homo sapiens, MDA-MB-231, 72 h) and 3.2 nM in the test with EVSA-T cells (Homo sapiens, EVSA-T, 72 h).

`C[C@@H]1CN(CC(=O)N2CC(C)(C)c3c2cc(Cc2ccc(F)cc2)c2nn(CC4(O)CCC4)c(=O)n32)[C@@H](CN2CCOC[C@H]2C)CN1` [Compound 262, 4-(4-fluorobenzyl)-2-((1-hydroxycyclobutyl)methyl)-8,8-dimethyl-6-(2-((2R,5R)-5-methyl-2-(((R)-3-methylmorpholino)methyl)piperazin-1-yl)acetyl)-2,6,7,8-tetrahydro-1H-pyrrolo[2,3-e][1,2,4]triazolo[4,3-a]pyridin-1-one]: the IC50 in the test on MDA-MB-231 cells (Homo sapiens, MDA-MB-231, 72 h) was determined as 12.5 nM; with EVSA-T cells (Homo sapiens, EVSA-T, 72 h) it was 1.3 nM.

Take `C[C@@H]1CN(CC(=O)N2CC(C)(C)c3c2cc(Cc2ccc(F)cc2)c2nn(CC(F)(F)F)c(=O)n32)[C@@H](CN2CCOC[C@H]2C)CN1` [Compound 263, 4-(4-fluorobenzyl)-8,8-dimethyl-6-(2-((2R,5R)-5-methyl-2-(((R)-3-methylmorpholino)methyl)piperazin-1-yl)acetyl)-2-(2,2,2-trifluoroethyl)-2,6,7,8-tetrahydro-1H-pyrrolo[2,3-e][1,2,4]triazolo[4,3-a]pyridin-1-one]: the IC50 in the test with MDA-MB-231 cells (Homo sapiens, MDA-MB-231, 72 h) was 27 nM; with EVSA-T cells (Homo sapiens, EVSA-T, 72 h), 8.2 nM.

As for `C[C@@H]1CN(CC(=O)N2CC(C)(C)c3c2cc(Cc2ccc(F)cc2)c2nn(CC(F)F)c(=O)n32)[C@@H](CN2CCOC[C@H]2C)CN1` [Compound 264, 2-(2,2-difluoroethyl)-4-(4-fluorobenzyl)-8,8-dimethyl-6-(2-((2R,5R)-5-methyl-2-(((R)-3-methylmorpholino)methyl)piperazin-1-yl)acetyl)-2,6,7,8-tetrahydro-1H-pyrrolo[2,3-e][1,2,4]triazolo[4,3-a]pyridin-1-one], the IC50 in the test on MDA-MB-231 cells (Homo sapiens, MDA-MB-231, 72 h) is 15 nM; with EVSA-T cells (Homo sapiens, EVSA-T, 72 h), 4.7 nM.

As for `C[C@@H]1CN(CC(=O)N2CC(C)(C)c3c2cc(Cc2ccc(F)cc2)c2nn(CC(C)(C)O)c(=O)n32)[C@@H](CN2CC3CCC(C2)O3)CN1` [Compound 265, 6-(2-((2R,5R)-2-((8-oxa-3-azabicyclo[3.2.1]octan-3-yl)methyl)-5-methylpiperazin-1-yl)acetyl)-4-(4-fluorobenzyl)-2-(2-hydroxy-2-methylpropyl)-8,8-dimethyl-2,6,7,8-tetrahydro-1H-pyrrolo[2,3-e][1,2,4]triazolo[4,3-a]pyridin-1-one], the IC50 stood at 41 nM with MDA-MB-231 cells (Homo sapiens, MDA-MB-231, 72 h) and 26.8 nM with EVSA-T cells (Homo sapiens, EVSA-T, 72 h).

As for `C[C@@H]1CN(CC(=O)N2CC(C)(C)c3c2cc(Cc2ccc(F)cc2)c2nn(CC(C)(C)O)c(=O)n32)[C@@H](CN2CCN(CC(F)(F)F)C[C@H]2C)CN1` [Compound 266, 4-(4-fluorobenzyl)-2-(2-hydroxy-2-methylpropyl)-8,8-dim ethyl-6-(2-((2R,5R)-5-methyl-2-(((R)-2-methyl-4-(2,2,2-trifluoroethyl)piperazin-1-yl)methyl)piperazin-1-yl)acetyl)-2,6,7,8-tetrahydro-1H-pyrrolo[2,3-e][1,2,4]triazolo[4,3-a]pyridin-1-one], the IC50 in the test with MDA-MB-231 cells (Homo sapiens, MDA-MB-231, 72 h) is 16 nM; in the test with EVSA-T cells (Homo sapiens, EVSA-T, 72 h) it was 4.9 nM.

In the case of `C[C@@H]1CN(CC(=O)N2CC(C)(C)c3c2cc(Cc2ccc(F)cc2)c2nn(CC(C)(C)O)c(=O)n32)[C@@H](CN2CCN(C3COC3)C[C@H]2C)CN1` [Compound 267, 4-(4-fluorobenzyl)-2-(2-hydroxy-2-methylpropyl)-8,8-dimethyl-6-(2-((2R,5R)-5-methyl-2-(((R)-2-methyl-4-(oxetan-3-yl)piperazin-1-yl)methyl)piperazin-1-yl)acetyl)-2,6,7,8-tetrahydro-1H-pyrrolo[2,3-e][1,2,4]triazolo[4,3-a]pyridin-1-one], the half-maximal inhibitory concentration (IC50) in the test on MDA-MB-231 cells (Homo sapiens, MDA-MB-231, 72 h) is 34 nM; in the test with EVSA-T cells (Homo sapiens, EVSA-T, 72 h) it was 19.6 nM.

As to `CC(O)Cn1nc2c(Cc3ccc(F)cc3)cc3c(n2c1=O)C(C)(C)CN3C(=O)CN1C[C@@H](C)NC[C@@H]1CN1CCOC[C@H]1C` (stereo partly drawn) [Compound 269, 4-(4-fluorobenzyl)-2-(2-hydroxypropyl)-8,8-dimethyl-6-(2-((2R,5R)-5-methyl-2-(((R)-3-methylmorpholino)methyl)piperazin-1-yl)acetyl)-2,6,7,8-tetrahydro-1H-pyrrolo[2,3-e][1,2,4]triazolo[4,3-a]pyridin-1-one], the half-inhibitory concentration (IC50) is 10 nM in the test on MDA-MB-231 cells (Homo sapiens, MDA-MB-231, 72 h) and 5.1 nM in the test with EVSA-T cells (Homo sapiens, EVSA-T, 72 h).

Take `C[C@@H]1CN(CC(=O)N2CC(C)(C)c3c2cc(Cc2ccc(F)cc2)c2nn(CC(O)C4CC4)c(=O)n32)[C@@H](CN2CCOC[C@H]2C)CN1` (stereo partly drawn) [Compound 270, 2-(2-cyclopropyl-2-hydroxyethyl)-4-(4-fluorobenzyl)-8,8-dimethyl-6-(2-((2R,5R)-5-methyl-2-(((R)-3-methylmorpholino)methyl)piperazin-1-yl)acetyl)-2,6,7,8-tetrahydro-1H-pyrrolo[2,3-e][1,2,4]triazolo[4,3-a]pyridin-1-one]: the IC50 in the test with MDA-MB-231 cells (Homo sapiens, MDA-MB-231, 72 h) came out at 51 nM; with EVSA-T cells (Homo sapiens, EVSA-T, 72 h) it was 11.5 nM.

`C[C@@H]1CN(CC(=O)N2CC(C)(C)c3c2cc(Cc2ccc(F)cc2)c2nn(C4CC(O)C4)c(=O)n32)[C@@H](CN2CCOC[C@H]2C)CN1` (stereo partly drawn) [Compound 271, 4-(4-fluorobenzyl)-2-(3-hydroxycyclobutyl)-8,8-dimethyl-6-(2-((2R,5R)-5-methyl-2-(((R)-3-methylmorpholino)methyl)piperazin-1-yl)acetyl)-2,6,7,8-tetrahydro-1H-pyrrolo[2,3-e][1,2,4]triazolo[4,3-a]pyridin-1-one]: the concentration for half-maximal inhibition (IC50) was 22 nM in the test with MDA-MB-231 cells (Homo sapiens, MDA-MB-231, 72 h) and 2.2 nM in the test with EVSA-T cells (Homo sapiens, EVSA-T, 72 h).

For the compound `C[C@@H]1CN(CC(=O)N2CC(C)(C)c3c2cc(Cc2ccc(F)cc2)c2nn(C4CC(C)(O)C4)c(=O)n32)[C@@H](CN2CCOC[C@H]2C)CN1` (stereo partly drawn) [Compound 272, 4-(4-fluorobenzyl)-2-(3-hydroxy-3-methylcyclobutyl)-8,8-dimethyl-6-(2-((2R,5R)-5-methyl-2-(((R)-3-methylmorpholino)methyl)piperazin-1-yl)acetyl)-2,6,7,8-tetrahydro-1H-pyrrolo[2,3-e][1,2,4]triazolo[4,3-a]pyridin-1-one], the IC50 in the test with MDA-MB-231 cells (Homo sapiens, MDA-MB-231, 72 h) turned out to be 21 nM; in the test on EVSA-T cells (Homo sapiens, EVSA-T, 72 h) it was 2 nM.

Consider `C[C@@H]1CN(CC(=O)N2CC(C)(C)c3c2cc(Cc2ccc(F)cc2)c2nn(C4CCC4O)c(=O)n32)[C@@H](CN2CCOC[C@H]2C)CN1` (stereo partly drawn) [Compound 273A, 4-(4-fluorobenzyl)-2-(2-hydroxycyclobutyl)-8,8-dimethyl-6-(2-((2R,5R)-5-methyl-2-(((R)-3-methylmorpholino)methyl)piperazin-1-yl)acetyl)-2,6,7,8-tetrahydro-1H-pyrrolo[2,3-e][1,2,4]triazolo[4,3-a]pyridin-1-one], for which the IC50 worked out at 23 nM in the test on MDA-MB-231 cells (Homo sapiens, MDA-MB-231, 72 h) and 1.24 nM with EVSA-T cells (Homo sapiens, EVSA-T, 72 h).

Consider `C[C@@H]1CN(CC(=O)N2CC(C)(C)c3c2cc(Cc2ccc(F)cc2)c2nn(C4CCC4O)c(=O)n32)[C@@H](CN2CCOC[C@H]2C)CN1` (stereo partly drawn) [Compound 273B, 4-(4-fluorobenzyl)-2-(2-hydroxycyclobutyl)-8,8-dimethyl-6-(2-((2R,5R)-5-methyl-2-(((R)-3-methylmorpholino)methyl)piperazin-1-yl)acetyl)-2,6,7,8-tetrahydro-1H-pyrrolo[2,3-e][1,2,4]triazolo[4,3-a]pyridin-1-one], for which the IC50 with MDA-MB-231 cells amounted to 14 nM; in the test on EVSA-T cells it was 1.7 nM.
